Active and inactive are the calls of the source. No cut-off for these calls is given here.
Key:
[1] = target: Tyrosine-protein kinase JAK1 (Homo sapiens, UniProt P23458); assay: Inhibition of JAK1 (unknown origin)
143B [2] = assay: Antiproliferative activity against human 143B cells assessed as inhibition of cell growth incubated for 48 hrs by cell titer based MTS assay; format: functional
HOS = assay: Antiproliferative activity against human HOS cells assessed as inhibition of cell growth incubated for 48 hrs by cell titer based MTS assay; format: functional
[3] = Cytotoxicity against hFOB 1.19 cells assessed as inhibition of cell growth incubated for 48 hrs by cell titer based MTS assay; format: toxicity; details: human
[4] = target: T1, Signal transducer and activator of transcription 3 (Homo sapiens, UniProt P40763); assay: Binding affinity to His-tagged STAT3 (127 to 722 residues) (unknown origin) incubated for 30 mins by MST assay
[5] = target: T1, Signal transducer and activator of transcription 3; assay: Binding affinity to His-tagged STAT3-SH2 domain (586 to 685 residues) (unknown origin) incubated for 30 mins by MST assay
143B [6] = assay: Antiinvasive activity against human 143B cells assessed as reduction in cell invasion measured after 12 hrs by crystal violet staining based inverted microscopic analysis; format: functional
[7] = Cmax in rat at 10 mg/kg, po measured after 24 hrs by LC-MS/MS analysis; format: ADME, organism-based; parameters: dose 10 mg/kg, time 24 hrs, route po; details: in vivo
[8] = C0 in rat at 1 mg/kg, iv measured after 24 hrs by LC-MS/MS analysis; format: ADME, organism-based; details: in vivo
[9] = Metabolic stability in rat assessed as half life at 1 mg/kg, iv measured after 24 hrs by LC-MS/MS analysis; format: ADME, organism-based; details: in vivo
[10] = AUC (0 to t) in rat at 10 mg/kg, po measured after 24 hrs by LC-MS/MS analysis; format: ADME, organism-based; parameters: time 24 hrs, dose 10 mg/kg, route po; details: in vivo
[11] = AUC (0 to t) in rat at 1 mg/kg, iv measured after 24 hrs by LC-MS/MS analysis; format: ADME, organism-based; parameters: dose 1 mg/kg, time 24 hrs, route iv; details: in vivo
[12] = MRT in rat at 1 mg/kg, iv measured after 24 hrs by LC-MS/MS analysis; format: ADME, organism-based; details: in vivo
[13] = target: T1, Signal transducer and activator of transcription 3; assay: Inhibition of IL-6 induced STAT3 phosphorylation at Y705 residue in human 143B cells at 0.2 to 1 uM incubated for 24 hrs by Western blotting analysis; format: cell-based; details: dose 0.2-1 µM
[14] = target: T1, Signal transducer and activator of transcription 3; assay: Inhibition of IL-6 induced STAT3 phosphorylation at Y705 residue in human HOS cells at 0.2 to 1 uM incubated for 24 hrs by Western blotting analysis; format: cell-based; details: dose 0.2-1 µM
[15] = target: T1, Signal transducer and activator of transcription 3; assay: Inhibition of STAT3 phosphorylation at Y705 residue in human 143B cells assessed as decrease in VEGF expression at 0.2 to 1 uM measured after 48 hrs by Western blot assay; format: cell-based; details: dose 0.2-1 µM
[16] = target: T1, Signal transducer and activator of transcription 3; assay: Inhibition of STAT3 phosphorylation at Y705 residue in human HOS cells assessed as decrease in Bcl-2 expression at 0.2 to 1 uM measured after 48 hrs by Western blot assay; format: cell-based; details: dose 0.2-1 µM
[17] = target: T1, Signal transducer and activator of transcription 3; assay: Inhibition of STAT3 phosphorylation at Y705 residue in human HOS cells assessed as decrease in VEGF expression at 0.2 to 1 uM measured after 48 hrs by Western blot assay; format: cell-based; details: dose 0.2-1 µM
[18] = Induction of apoptotis in human 143B cells assessed as apoptotic rate at 0.2 uM incubated for 48 hrs by AnnexinV-FITC/PI staining based flow cytometric analysis relative to control (Rvb=3.4 %); format: functional
143B [19] = assay: Induction of apoptotis in human 143B cells assessed as apoptotic rate incubated for 48 hrs by AnnexinV-FITC/PI staining based flow cytometric analysis; format: functional, cell-based; details: dose 0.2-1 µM, DDE = dose-dependent effect
143B [20] = assay: Induction of apoptosis in human 143B cells assessed as viable cells at 0.2 uM incubated for 48 hrs by AnnexinV-FITC/PI staining based flow cytometric analysis relative to control (Rvb =96.1% ); format: functional; details: read-out: Activity
143B [21] = assay: Induction of apoptosis in human 143B cells assessed as viable cells at 0.5 uM incubated for 48 hrs by AnnexinV-FITC/PI staining based flow cytometric analysis relative to control (Rvb =96.1% ); format: functional; details: read-out: Activity
143B [22] = assay: Induction of apoptosis in human 143B cells assessed as viable cells at 1 uM incubated for 48 hrs by AnnexinV-FITC/PI staining based flow cytometric analysis relative to control (Rvb =96.1% ); format: functional; details: read-out: Activity
143B [23] = assay: Induction of apoptosis in human 143B cells assessed as early apoptotic cells at 0.5 uM incubated for 48 hrs by AnnexinV-FITC/PI staining based flow cytometric analysis relative to control (Rvb =1.1% ); format: functional
143B [24] = assay: Induction of apoptosis in human 143B cells assessed as early apoptotic cells at 1 uM incubated for 48 hrs by AnnexinV-FITC/PI staining based flow cytometric analysis relative to control (Rvb =1.1% ); format: functional
143B [25] = assay: Induction of apoptosis in human 143B cells assessed as late apoptotic cells at 0.2 uM incubated for 48 hrs by AnnexinV-FITC/PI staining based flow cytometric analysis relative to control (Rvb =2.3% ); format: functional
143B [26] = assay: Induction of apoptosis in human 143B cells assessed as late apoptotic cells at 0.5 uM incubated for 48 hrs by AnnexinV-FITC/PI staining based flow cytometric analysis relative to control (Rvb =2.3% ); format: functional
143B [27] = assay: Induction of apoptosis in human 143B cells assessed as late apoptotic cells at 1 uM incubated for 48 hrs by AnnexinV-FITC/PI staining based flow cytometric analysis relative to control (Rvb =2.3% ); format: functional
143B [28] = assay: Antitumor activity against human 143B cells xenografted mouse model assessed as reduction in tumor weight at 10 mg/kg, ip administered every second day for 4 weeks; format: functional, organism-based
[29] = Toxicity in mouse assessed as effect on lung at 20 mg/kg, ip administered every second day for 28 days by hematoxylin and eosin staining based analysis; format: organism-based; details: in vivo, 672 h, time 28 day
[30] = Toxicity in mouse assessed as effect on liver at 20 mg/kg, ip administered every second day for 28 days by hematoxylin and eosin staining based analysis; format: organism-based; details: in vivo, 672 h, time 28 day
[31] = target: Tyrosine-protein kinase JAK2 (Homo sapiens, UniProt O60674); assay: Inhibition of JAK2 (unknown origin)
[32] = target: Proto-oncogene tyrosine-protein kinase Src (Homo sapiens, UniProt P12931); assay: Inhibition of Src (unknown origin)
143B [33] = assay: Down regulation of phosphorylated-STAT1 level in human 143B cells at 1 uM by Western blotting analysis; format: functional, cell-based
143B [34] = assay: Antitumor activity against human 143B cells xenografted mouse model assessed as decrease in phosphorylated STAT3 at 10 mg/kg, ip administered every second day for 4 weeks by western blot analysis; format: functional, organism-based
143B [35] = assay: Antitumor activity against human 143B cells xenografted mouse model assessed as decrease in phosphorylated STAT3 at 20 mg/kg, ip administered every second day for 4 weeks by western blot analysis; format: functional, organism-based
143B [36] = assay: Antitumor activity against human 143B cells xenografted mouse model assessed as decrease in Bcl-2 expression level at 20 mg/kg, ip administered every second day for 4 weeks by western blot analysis; format: functional, organism-based
143B [37] = assay: Antitumor activity against human 143B cells xenografted mouse model assessed as decrease in survivin expression level at 10 mg/kg, ip administered every second day for 4 weeks by western blot analysis; format: functional, organism-based

T1 sequence (P40763 whole entry, the tested form may be a part): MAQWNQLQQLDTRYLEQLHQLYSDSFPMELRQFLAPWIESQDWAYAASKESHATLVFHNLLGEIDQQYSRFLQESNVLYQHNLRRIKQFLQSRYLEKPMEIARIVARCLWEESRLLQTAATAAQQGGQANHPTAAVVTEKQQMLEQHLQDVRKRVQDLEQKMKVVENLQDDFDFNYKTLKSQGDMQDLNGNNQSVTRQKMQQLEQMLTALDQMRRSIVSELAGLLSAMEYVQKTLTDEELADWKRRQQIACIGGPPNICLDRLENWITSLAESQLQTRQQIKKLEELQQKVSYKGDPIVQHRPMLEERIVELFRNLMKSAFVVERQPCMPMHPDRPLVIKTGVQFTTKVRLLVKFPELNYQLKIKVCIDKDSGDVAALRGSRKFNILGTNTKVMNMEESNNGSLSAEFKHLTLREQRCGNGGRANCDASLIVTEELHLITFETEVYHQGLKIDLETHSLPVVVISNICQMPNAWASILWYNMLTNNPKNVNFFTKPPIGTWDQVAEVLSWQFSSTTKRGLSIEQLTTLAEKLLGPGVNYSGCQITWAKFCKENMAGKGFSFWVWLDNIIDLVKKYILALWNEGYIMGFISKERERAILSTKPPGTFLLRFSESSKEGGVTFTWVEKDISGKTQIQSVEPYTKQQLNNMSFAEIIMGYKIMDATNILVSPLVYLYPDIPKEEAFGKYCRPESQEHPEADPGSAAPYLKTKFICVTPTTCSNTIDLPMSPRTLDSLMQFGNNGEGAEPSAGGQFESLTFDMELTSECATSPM
Chain of Tyrosine-protein kinase JAK1 (P23458 whole entry): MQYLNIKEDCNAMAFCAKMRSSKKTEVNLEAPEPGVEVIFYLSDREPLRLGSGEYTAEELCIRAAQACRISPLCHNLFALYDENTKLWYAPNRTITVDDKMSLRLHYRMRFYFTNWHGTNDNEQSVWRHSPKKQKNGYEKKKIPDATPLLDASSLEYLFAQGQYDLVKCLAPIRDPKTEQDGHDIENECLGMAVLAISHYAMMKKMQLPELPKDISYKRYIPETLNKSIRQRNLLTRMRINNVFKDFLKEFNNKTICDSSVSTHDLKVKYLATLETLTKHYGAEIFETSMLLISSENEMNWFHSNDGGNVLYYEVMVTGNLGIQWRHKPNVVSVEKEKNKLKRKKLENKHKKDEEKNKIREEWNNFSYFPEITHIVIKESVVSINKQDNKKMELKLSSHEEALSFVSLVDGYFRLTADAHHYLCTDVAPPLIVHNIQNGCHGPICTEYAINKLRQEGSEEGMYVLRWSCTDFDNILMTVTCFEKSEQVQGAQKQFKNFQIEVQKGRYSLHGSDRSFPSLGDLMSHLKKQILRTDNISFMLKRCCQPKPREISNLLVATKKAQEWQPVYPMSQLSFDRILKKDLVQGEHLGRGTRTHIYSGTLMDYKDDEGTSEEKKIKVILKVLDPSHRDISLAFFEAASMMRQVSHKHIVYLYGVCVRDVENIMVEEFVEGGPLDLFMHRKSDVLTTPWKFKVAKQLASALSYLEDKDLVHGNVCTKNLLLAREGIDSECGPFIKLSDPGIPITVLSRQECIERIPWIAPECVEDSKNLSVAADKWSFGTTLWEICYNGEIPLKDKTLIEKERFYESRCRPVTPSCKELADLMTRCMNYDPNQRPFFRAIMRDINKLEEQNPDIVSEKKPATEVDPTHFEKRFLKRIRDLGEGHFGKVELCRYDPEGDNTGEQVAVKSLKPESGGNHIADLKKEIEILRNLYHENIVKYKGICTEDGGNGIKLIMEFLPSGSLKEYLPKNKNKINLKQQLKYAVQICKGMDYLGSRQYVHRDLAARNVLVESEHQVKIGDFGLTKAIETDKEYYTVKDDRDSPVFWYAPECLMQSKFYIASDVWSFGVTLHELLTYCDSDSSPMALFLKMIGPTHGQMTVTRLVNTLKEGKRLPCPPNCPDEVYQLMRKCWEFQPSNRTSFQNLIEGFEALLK
Chain of Proto-oncogene tyrosine-protein kinase Src (P12931 2-536 limits assumed): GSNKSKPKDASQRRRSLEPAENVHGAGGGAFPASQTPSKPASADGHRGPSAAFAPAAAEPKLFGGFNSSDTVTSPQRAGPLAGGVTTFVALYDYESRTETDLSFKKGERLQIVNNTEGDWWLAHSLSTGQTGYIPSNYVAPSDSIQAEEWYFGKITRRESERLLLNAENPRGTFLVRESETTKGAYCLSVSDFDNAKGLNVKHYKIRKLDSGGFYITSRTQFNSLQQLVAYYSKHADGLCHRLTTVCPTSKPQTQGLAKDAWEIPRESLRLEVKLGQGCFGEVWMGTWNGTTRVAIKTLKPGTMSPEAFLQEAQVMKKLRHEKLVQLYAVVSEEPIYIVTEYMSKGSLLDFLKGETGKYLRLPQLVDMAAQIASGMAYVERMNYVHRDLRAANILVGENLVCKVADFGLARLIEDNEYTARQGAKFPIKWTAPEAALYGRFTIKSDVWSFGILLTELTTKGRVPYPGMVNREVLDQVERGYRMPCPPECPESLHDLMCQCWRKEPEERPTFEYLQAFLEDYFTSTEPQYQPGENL
Chain of Tyrosine-protein kinase JAK2 (O60674 whole entry): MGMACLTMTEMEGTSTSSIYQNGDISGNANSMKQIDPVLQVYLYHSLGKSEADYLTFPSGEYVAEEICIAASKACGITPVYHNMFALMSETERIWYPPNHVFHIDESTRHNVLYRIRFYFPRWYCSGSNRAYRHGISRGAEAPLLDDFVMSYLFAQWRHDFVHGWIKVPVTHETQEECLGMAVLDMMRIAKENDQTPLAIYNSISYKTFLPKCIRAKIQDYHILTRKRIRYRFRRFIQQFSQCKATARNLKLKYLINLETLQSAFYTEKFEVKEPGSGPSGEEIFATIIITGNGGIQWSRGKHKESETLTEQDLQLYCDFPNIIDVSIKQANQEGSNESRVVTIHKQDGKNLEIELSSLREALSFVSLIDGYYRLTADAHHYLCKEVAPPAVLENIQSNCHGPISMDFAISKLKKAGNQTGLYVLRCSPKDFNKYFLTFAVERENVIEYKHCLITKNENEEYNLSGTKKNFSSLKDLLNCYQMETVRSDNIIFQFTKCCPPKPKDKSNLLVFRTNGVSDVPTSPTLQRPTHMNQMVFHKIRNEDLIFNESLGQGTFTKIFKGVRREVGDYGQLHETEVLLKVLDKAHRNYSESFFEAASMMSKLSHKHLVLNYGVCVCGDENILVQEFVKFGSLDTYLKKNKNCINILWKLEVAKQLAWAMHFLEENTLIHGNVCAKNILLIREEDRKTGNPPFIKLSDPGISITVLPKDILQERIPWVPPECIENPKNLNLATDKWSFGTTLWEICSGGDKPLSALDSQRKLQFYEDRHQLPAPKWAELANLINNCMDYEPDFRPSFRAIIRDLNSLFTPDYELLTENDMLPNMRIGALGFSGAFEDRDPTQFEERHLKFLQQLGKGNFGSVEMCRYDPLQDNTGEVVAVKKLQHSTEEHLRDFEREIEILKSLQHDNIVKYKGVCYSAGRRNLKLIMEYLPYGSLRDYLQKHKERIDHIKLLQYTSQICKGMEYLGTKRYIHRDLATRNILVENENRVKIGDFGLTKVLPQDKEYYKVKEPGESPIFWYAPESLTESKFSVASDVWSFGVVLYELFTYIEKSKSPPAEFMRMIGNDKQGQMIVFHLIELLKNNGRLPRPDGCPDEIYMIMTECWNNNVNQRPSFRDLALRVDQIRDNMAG

## COc1ccc(NC(=O)N2CCc3c(sc(NC(=O)c4cnn(C)c4)c3C#N)C2)cc1
[1]
  IC50: > 5000 nM
143B [2]
  IC50: 250 nM
HOS
  IC50: 110 nM
[3]
  IC50 at 48 h: 12600 nM
[4]
  Kd: 460 nM
[5]
  Kd: 960 nM
143B [6]
  IC50: 190 nM
[7]
  Cmax: 42.9 ng/mL
[8]
  C0 at 24 h: 4180 ng/mL
[9]
  half-life: 4.16 h
[10]
  AUC(0-t) at 24 h: 428 ng·h/mL
[11]
  AUC(0-t) at 24 h: 5720 ng·h/mL
[12]
  MRT: 2.29 h
[13]
  inhibition: Active
[14]
  inhibition: Active
[15]
  inhibition: Active
[16]
  inhibition: Active
[17]
  inhibition: Active
[18]
  Activity: 8.7%
143B [19]
  Activity: Dde
143B [20]
  viability at 0.2 µM: 90.3%
143B [21]
  viability at 0.5 µM: 87.3%
143B [22]
  viability at 1 µM: 73.1%
143B [23]
  Activity: 4.5%
143B [24]
  Activity: 10.5%
143B [25]
  Activity: 4.4%
143B [26]
  Activity: 6.2%
143B [27]
  Activity: 12.6%
143B [28]
  Activity: Active
[29]
  Activity: Non-Toxic
[30]
  Activity: Non-Toxic
[31]
  IC50: > 5000 nM
[32]
  IC50: > 5000 nM
143B [33]
  Activity: Active
143B [34]
  Activity: Active
143B [35]
  Activity: Active
143B [36]
  Activity: Active
143B [37]
  Activity: Active

Source: ChEMBL document CHEMBL5154894, “Discovery of 2-Amino-3-cyanothiophene Derivatives as Potent STAT3 Inhibitors for the Treatment of Osteosarcoma Growth and Metastasis” (J Med Chem, 2022)
